Measurements published in PubChem BioAssay (NCI).
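Cultured in 96-well plates, cells were exposed to test compound for 48 hours across five concentrations. GI50 = concentration required for 50% inhibition of growth. TGI denotes the concentration required for complete inhibition of growth.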

Legend:
Assay in all cases: NCI-60 cell line screen, 48 h
OVCAR-4 ovarian = test system: OVCAR-4 ovarian
CCRF-CEM leukemia = test system: CCRF-CEM leukemia
U251 CNS = test system: U251 CNS
MCF7 breast = test system: MCF7 breast
MDA-MB-231 breast = test system: MDA-MB-231 breast
OVCAR-5 ovarian = test system: OVCAR-5 ovarian
SR leukemia = test system: SR leukemia
NCI-H522 lung = test system: NCI-H522 lung
NCI-H226 lung = test system: NCI-H226 lung
K-562 leukemia = test system: K-562 leukemia
LOX IMVI melanoma = test system: LOX IMVI melanoma
NCI-H460 lung = test system: NCI-H460 lung
UO-31 renal = test system: UO-31 renal
SNB-19 CNS = test system: SNB-19 CNS
SF-539 CNS = test system: SF-539 CNS
SF-295 CNS = test system: SF-295 CNS
DU-145 prostate = test system: DU-145 prostate
786-0 renal = test system: 786-0 renal
UACC-62 melanoma = test system: UACC-62 melanoma
RPMI-8226 leukemia = test system: RPMI-8226 leukemia
UACC-257 melanoma = test system: UACC-257 melanoma
SNB-75 CNS = test system: SNB-75 CNS
HCC-2998 colon = test system: HCC-2998 colon
NCI/ADR-RES ovarian = test system: NCI/ADR-RES ovarian
COLO 205 colon = test system: COLO 205 colon
OVCAR-3 ovarian = test system: OVCAR-3 ovarian
SK-MEL-2 melanoma = test system: SK-MEL-2 melanoma
HCT-15 colon = test system: HCT-15 colon
SK-MEL-28 melanoma = test system: SK-MEL-28 melanoma
SN12C renal = test system: SN12C renal
M14 melanoma = test system: M14 melanoma
A498 renal = test system: A498 renal
HCT-116 colon = test system: HCT-116 colon
TK-10 renal = test system: TK-10 renal
HT29 colon = test system: HT29 colon
SK-MEL-5 melanoma = test system: SK-MEL-5 melanoma
HOP-62 NSCLC = test system: HOP-62 NSCLC
MOLT-4 leukemia = test system: MOLT-4 leukemia
SW-620 colon = test system: SW-620 colon
T-47D breast = test system: T-47D breast
OVCAR-8 ovarian = test system: OVCAR-8 ovarian
CAKI-1 renal = test system: CAKI-1 renal
RXF 393 renal = test system: RXF 393 renal
EKVX NSCLC = test system: EKVX NSCLC
HS 578T breast = test system: HS 578T breast
MDA-MB-435 = test system: MDA-MB-435
KM12 colon = test system: KM12 colon
SF-268 CNS = test system: SF-268 CNS
NCI-H23 lung = test system: NCI-H23 lung
BT-549 breast = test system: BT-549 breast
MALME-3M melanoma = test system: MALME-3M melanoma
A549 NSCLC = test system: A549 NSCLC
HL-60(TB) leukemia = test system: HL-60(TB) leukemia
IGROV1 ovarian = test system: IGROV1 ovarian
HOP-92 NSCLC = test system: HOP-92 NSCLC
PC-3 prostate = test system: PC-3 prostate
ACHN renal = test system: ACHN renal
SK-OV-3 ovarian = test system: SK-OV-3 ovarian

COc1ccc(Nc2nc3cc(C(F)(F)F)ccc3nc2C(=O)O)cc1OC
TGI (OVCAR-4 ovarian): > 100 µM
TGI (CCRF-CEM leukemia): 67.5 µM
TGI (U251 CNS): > 100 µM
TGI (MCF7 breast): 95.3 µM
TGI (MDA-MB-231 breast): 65.6 µM
TGI (OVCAR-5 ovarian): > 100 µM
TGI (SR leukemia): 77 µM
TGI (NCI-H522 lung): > 100 µM
TGI (NCI-H226 lung): 55.6 µM
TGI (K-562 leukemia): > 100 µM
TGI (LOX IMVI melanoma): > 100 µM
TGI (NCI-H460 lung): > 100 µM
TGI (UO-31 renal): > 100 µM
TGI (SNB-19 CNS): > 100 µM
TGI (SF-539 CNS): 62.3 µM
TGI (SF-295 CNS): 45.5 µM
TGI (DU-145 prostate): > 100 µM
TGI (786-0 renal): > 100 µM
TGI (UACC-62 melanoma): 53.6 µM
TGI (RPMI-8226 leukemia): 92 µM
TGI (UACC-257 melanoma): > 100 µM
TGI (SNB-75 CNS): > 100 µM
TGI (HCC-2998 colon): > 100 µM
TGI (NCI/ADR-RES ovarian): > 100 µM
TGI (COLO 205 colon): 69.3 µM
TGI (OVCAR-3 ovarian): 93.3 µM
TGI (SK-MEL-2 melanoma): 33.2 µM
TGI (HCT-15 colon): > 100 µM
TGI (SK-MEL-28 melanoma): > 100 µM
TGI (SN12C renal): 64.2 µM
TGI (M14 melanoma): > 100 µM
TGI (A498 renal): > 100 µM
TGI (HCT-116 colon): 95.7 µM
TGI (TK-10 renal): > 100 µM
TGI (HT29 colon): > 100 µM
TGI (SK-MEL-5 melanoma): 47.9 µM
TGI (HOP-62 NSCLC): > 100 µM
TGI (MOLT-4 leukemia): 69.5 µM
TGI (SW-620 colon): > 100 µM
TGI (T-47D breast): > 100 µM
TGI (OVCAR-8 ovarian): > 100 µM
TGI (CAKI-1 renal): 56.3 µM
TGI (RXF 393 renal): 60.2 µM
TGI (EKVX NSCLC): > 100 µM
TGI (HS 578T breast): > 100 µM
TGI (MDA-MB-435): > 100 µM
TGI (KM12 colon): 88.4 µM
TGI (SF-268 CNS): > 100 µM
TGI (NCI-H23 lung): 78.9 µM
TGI (BT-549 breast): > 100 µM
TGI (MALME-3M melanoma): > 100 µM
TGI (A549 NSCLC): > 100 µM
TGI (HL-60(TB) leukemia): 72.2 µM
TGI (IGROV1 ovarian): > 100 µM
TGI (HOP-92 NSCLC): 74.9 µM
TGI (PC-3 prostate): > 100 µM
TGI (ACHN renal): > 100 µM

CC(C)=CC(=O)OCC(=O)O[C@@H]1C[C@]2(C(C)C)O[C@@]1(C)[C@@H]1CC[C@@H](C)[C@H]1[C@@H]2OC(=O)/C=C/c1ccccc1
GI50 (OVCAR-4 ovarian): 30.2 µM
TGI (OVCAR-4 ovarian): > 100 µM
GI50 (CCRF-CEM leukemia): 29.6 µM
TGI (CCRF-CEM leukemia): > 100 µM
GI50 (U251 CNS): > 56.4 µM
TGI (U251 CNS): > 100 µM
GI50 (MCF7 breast): 35.3 µM
TGI (MCF7 breast): > 100 µM
GI50 (MDA-MB-231 breast): > 51.7 µM
TGI (MDA-MB-231 breast): > 85.2 µM
GI50 (OVCAR-5 ovarian): > 62.7 µM
TGI (OVCAR-5 ovarian): > 100 µM
GI50 (SR leukemia): 11.1 µM
TGI (SR leukemia): > 100 µM
GI50 (NCI-H522 lung): > 62.1 µM
TGI (NCI-H522 lung): > 100 µM
GI50 (NCI-H226 lung): 9.47 µM
TGI (NCI-H226 lung): > 94.1 µM
GI50 (K-562 leukemia): 7.75 µM
TGI (K-562 leukemia): > 100 µM
GI50 (LOX IMVI melanoma): 33.4 µM
TGI (LOX IMVI melanoma): > 70.5 µM
GI50 (NCI-H460 lung): > 63 µM
TGI (NCI-H460 lung): > 100 µM
GI50 (UO-31 renal): 0.239 µM
TGI (UO-31 renal): 2.36 µM
GI50 (SNB-19 CNS): > 58.5 µM
TGI (SNB-19 CNS): > 100 µM
GI50 (SF-539 CNS): > 72.7 µM
TGI (SF-539 CNS): > 100 µM
GI50 (SF-295 CNS): > 48.3 µM
TGI (SF-295 CNS): > 100 µM
GI50 (DU-145 prostate): > 69.2 µM
TGI (DU-145 prostate): > 100 µM
GI50 (786-0 renal): 7.21 µM
TGI (786-0 renal): > 100 µM
GI50 (UACC-62 melanoma): 24.4 µM
TGI (UACC-62 melanoma): > 100 µM
GI50 (RPMI-8226 leukemia): 7.89 µM
TGI (RPMI-8226 leukemia): > 100 µM
GI50 (UACC-257 melanoma): > 47.5 µM
TGI (UACC-257 melanoma): > 94.3 µM
GI50 (SK-OV-3 ovarian): > 55.7 µM
TGI (SK-OV-3 ovarian): > 100 µM
GI50 (SNB-75 CNS): 34.2 µM
TGI (SNB-75 CNS): > 87.5 µM
GI50 (HCC-2998 colon): > 57.2 µM
TGI (HCC-2998 colon): > 100 µM
GI50 (NCI/ADR-RES ovarian): 2.25 µM
TGI (NCI/ADR-RES ovarian): > 85.5 µM
GI50 (COLO 205 colon): > 48.5 µM
TGI (COLO 205 colon): > 65.3 µM
GI50 (OVCAR-3 ovarian): > 42.3 µM
TGI (OVCAR-3 ovarian): > 100 µM
GI50 (SK-MEL-2 melanoma): > 56.4 µM
TGI (SK-MEL-2 melanoma): > 85.9 µM
GI50 (HCT-15 colon): 42.1 µM
TGI (HCT-15 colon): > 100 µM
GI50 (SK-MEL-28 melanoma): > 63.3 µM
TGI (SK-MEL-28 melanoma): > 100 µM
GI50 (SN12C renal): 5.9 µM
TGI (SN12C renal): > 93.2 µM
GI50 (M14 melanoma): > 57.8 µM
TGI (M14 melanoma): > 100 µM
GI50 (A498 renal): 0.179 µM
TGI (A498 renal): 0.679 µM
GI50 (HCT-116 colon): 11 µM
TGI (HCT-116 colon): > 100 µM
GI50 (TK-10 renal): > 70.4 µM
TGI (TK-10 renal): > 100 µM
GI50 (HT29 colon): > 56.4 µM
TGI (HT29 colon): > 100 µM
GI50 (SK-MEL-5 melanoma): 49.2 µM
TGI (SK-MEL-5 melanoma): > 66.1 µM
GI50 (HOP-62 NSCLC): > 62.3 µM
TGI (HOP-62 NSCLC): > 100 µM
GI50 (MOLT-4 leukemia): 43.4 µM
TGI (MOLT-4 leukemia): > 100 µM
GI50 (SW-620 colon): > 60.4 µM
TGI (SW-620 colon): > 100 µM
GI50 (T-47D breast): 18.9 µM
TGI (T-47D breast): > 100 µM
GI50 (OVCAR-8 ovarian): 0.912 µM
TGI (OVCAR-8 ovarian): > 72.9 µM
GI50 (CAKI-1 renal): 0.346 µM
GI50 (RXF 393 renal): 0.382 µM
TGI (RXF 393 renal): 11.7 µM
GI50 (EKVX NSCLC): > 51 µM
TGI (EKVX NSCLC): > 100 µM
GI50 (HS 578T breast): 0.064 µM
TGI (HS 578T breast): 0.548 µM
GI50 (MDA-MB-435): > 67.9 µM
TGI (MDA-MB-435): > 100 µM
GI50 (KM12 colon): > 56 µM
TGI (KM12 colon): > 100 µM
GI50 (SF-268 CNS): > 38.1 µM
TGI (SF-268 CNS): > 100 µM
GI50 (NCI-H23 lung): > 50.4 µM
TGI (NCI-H23 lung): > 96.4 µM
GI50 (BT-549 breast): 2.11 µM
TGI (BT-549 breast): > 73.2 µM
GI50 (MALME-3M melanoma): > 55.5 µM
TGI (MALME-3M melanoma): > 100 µM
GI50 (A549 NSCLC): > 57.2 µM
TGI (A549 NSCLC): > 100 µM
GI50 (HL-60(TB) leukemia): 11.6 µM
TGI (HL-60(TB) leukemia): > 69.4 µM
GI50 (IGROV1 ovarian): > 61.8 µM
TGI (IGROV1 ovarian): > 100 µM
GI50 (HOP-92 NSCLC): 5.18 µM
TGI (HOP-92 NSCLC): > 75.4 µM
GI50 (PC-3 prostate): 6.01 µM
TGI (PC-3 prostate): > 100 µM
GI50 (ACHN renal): 0.3 µM
TGI (ACHN renal): > 19.6 µM
